Article PMC8151276, “An Integrated Approach toward NanoBRET Tracers for Analysis of GPCR Ligand Engagement” (Molecules, 2021)

Key:
Format in all cases: binding
ADRB1 = target: T1, ADRB1 (Homo sapiens, UniProt P08588); test: NanoBRET screen HiBiT-ADRB1 in HEK293
T1 construct: purchased Promega (in-house HiBiT-GPCR construct library, NanoBRET)

AVPR1B = target: T2, AVPR1B (Homo sapiens, UniProt P47901); test: NanoBRET screen HiBiT-AVPR1B in HEK293
T2 construct: purchased Promega (in-house HiBiT-GPCR construct library, NanoBRET)
T2 sequence (P47901 1-424): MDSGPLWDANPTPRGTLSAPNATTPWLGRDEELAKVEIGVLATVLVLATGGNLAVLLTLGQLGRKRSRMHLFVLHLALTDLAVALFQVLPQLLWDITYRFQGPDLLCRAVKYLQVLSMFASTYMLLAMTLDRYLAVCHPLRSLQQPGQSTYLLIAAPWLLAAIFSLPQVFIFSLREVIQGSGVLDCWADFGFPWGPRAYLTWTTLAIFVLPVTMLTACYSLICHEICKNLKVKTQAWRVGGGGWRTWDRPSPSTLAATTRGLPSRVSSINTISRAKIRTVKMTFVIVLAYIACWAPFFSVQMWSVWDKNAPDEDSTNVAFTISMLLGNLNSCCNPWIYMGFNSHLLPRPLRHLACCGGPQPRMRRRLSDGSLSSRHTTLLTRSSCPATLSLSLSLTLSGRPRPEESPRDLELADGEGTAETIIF
Method: (§1) Each tracer candidate was screened across the entire library of HiBiT-GPCR constructs using NanoBRET as the detection modality. As depicted in Figure 4A, the specificity of interactions was evaluated through decrease in BRET due to competitive displacement of a bound tracer by excess parental compound. Each tracer was analyzed for binding to each HiBiT-GPCR fusion in the absence and in the presence of competing parental compound. Briefly, HEK293 cells were transfected with HiBiT-GPCR constructs diluted into promoterless DNA to reduce expression and maximize translocation to the cell surface. Each tracer candidate was then screened at concentrations of 1 μM and 0.1 μM across cells expressing these fusions. Cells were treated for 1.5 h with tracer either alone or in the presence of 20 μM competing parental compound (i.e., control). BRET was measured upon addition of purified LgBiT and subsequent complementation with HiBiT genetically fused to a GPCR. The specificity of interactions was assessed through a decrease in BRET signal due to competitive displacement of the bound tracer. To further gauge the robustness of these interactions, the fold response over the control (i.e., BRETtracer/BRETcontrol) was calculated. We chose a 1.5-fold response, which translates to ≥7-fold signal over noise as the minimal threshold required to score an interaction as positive. […]. Below we highlight the screening results obtained for our exemplary fluorescent tracers based on Clozapine, Amitriptyline and AZD1283.
(§2) HiBiT-GPCR DNA constructs were diluted in 10 mM Tris pH 8 to a final concentration of 0.01 μg/μL, arrayed in 96-well plates and stored at −20 °C. For transfection, HEK293 cells were suspended in Opti-MEM (without phenol red) supplemented with 2% fetal bovine serum (Seradigm) and 100 units/mL penicillin–streptomycin (Gibco) at a final concentration of 220,000 cells/mL and dispensed into white 96-well plates at 90 μL/well. Subsequent transfections and screens were carried using an Agilent Bravo Automated Liquid Handling Platform. First, the 96-well HiBiT DNA arrays were diluted 25-fold in Opti-MEM (without serum or phenol red) to a final concentration of 0.0004 μg/μL and 20 μL of the diluted DNAs were transferred into new 96-well plates. Next, promoterless carrier DNA (1 μg/μL) was diluted 25-fold (0.04 μg/μL) and then dispensed into the diluted arrays at 20 μL/well. Following brief mixing, Viafect transfection reagent (Promega) diluted 16-fold into Opti-MEM was dispensed into the plates at 40 μL/well. After mixing by pipetting, plates were incubated for 10 min on the pipetting station deck. The DNA-transfection reagent complexes were then added to plates containing cells. To facilitate the screen, 10 μL of DNA-transfection reagent complexes were added in duplicates to the top 4 and bottom 4 rows, resulting in two identical 48-well arrays per plate. Plates with transfected cells were incubated for 18–20 h at 37 °C/5% CO2. A screen of each tracer across the entire library using two different concentrations requires duplicate plates of transfected cells. Depending on the number of tracers being screened, transfections can be scaled up using the same ratios. The next day, for each tracer, four 20× screening solutions in tracer dilution buffer (Promega) were prepared: two duplicates at final concentration of 20 μM and two duplicates at a final concentration of 2 μM. A competing unmodified compound was added to one of each duplicate at a final concentration of 400 μM. The four resulting solutions were diluted 4-fold in Opti-MEM without serum or phenol red to generate 5× solutions (5 µM and 0.5 µM tracer +/− 100 μM competing compound). To screen the library, a BioTek MultiFlo FX liquid dispenser was used to dispense 22.5 µL of tracer solution to the top 4 rows and 22.5 µL tracer + competing compound solution to the 4 bottom rows. Plates were briefly mixed on an orbital shaker and incubated for 1.5 h at room temperature. […]

CCR9 = target: T3, CCR9 (Homo sapiens, UniProt P51686); test: NanoBRET screen HiBiT-CCR9 in HEK293
T3 construct: purchased Promega (in-house HiBiT-GPCR construct library, NanoBRET)
T3 sequence (P51686 1-369): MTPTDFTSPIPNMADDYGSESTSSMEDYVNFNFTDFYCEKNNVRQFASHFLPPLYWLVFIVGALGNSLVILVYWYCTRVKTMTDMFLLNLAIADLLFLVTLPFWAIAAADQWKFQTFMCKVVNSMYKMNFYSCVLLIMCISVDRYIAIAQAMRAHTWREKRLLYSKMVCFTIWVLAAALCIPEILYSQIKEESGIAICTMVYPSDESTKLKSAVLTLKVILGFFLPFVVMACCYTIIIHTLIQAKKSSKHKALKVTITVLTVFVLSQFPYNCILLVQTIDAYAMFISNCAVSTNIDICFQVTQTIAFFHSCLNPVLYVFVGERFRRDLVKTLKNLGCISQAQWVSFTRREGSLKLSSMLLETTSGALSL
Method: as §1, §2

HTR5A = target: T4, HTR5A (Homo sapiens, UniProt P47898); test: NanoBRET screen HiBiT-HTR5A in HEK293
T4 construct: purchased Promega (in-house HiBiT-GPCR construct library, NanoBRET)
Method: as §1, §2

GALR1 = target: T5, GALR1 (Homo sapiens, UniProt P47211); test: NanoBRET screen HiBiT-GALR1 in HEK293
T5 construct: purchased Promega (in-house HiBiT-GPCR construct library, NanoBRET)
T5 sequence (P47211 1-349): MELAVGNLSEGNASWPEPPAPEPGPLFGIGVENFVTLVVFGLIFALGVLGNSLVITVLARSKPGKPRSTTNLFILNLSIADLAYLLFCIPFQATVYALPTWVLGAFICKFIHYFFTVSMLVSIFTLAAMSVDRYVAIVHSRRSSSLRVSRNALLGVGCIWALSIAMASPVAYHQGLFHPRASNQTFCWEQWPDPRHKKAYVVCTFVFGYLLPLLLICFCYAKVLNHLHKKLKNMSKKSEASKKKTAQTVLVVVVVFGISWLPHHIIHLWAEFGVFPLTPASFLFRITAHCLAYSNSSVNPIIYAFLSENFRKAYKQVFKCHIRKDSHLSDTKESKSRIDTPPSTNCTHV
Method: as §1, §2

T4 sequence (P47898 whole entry): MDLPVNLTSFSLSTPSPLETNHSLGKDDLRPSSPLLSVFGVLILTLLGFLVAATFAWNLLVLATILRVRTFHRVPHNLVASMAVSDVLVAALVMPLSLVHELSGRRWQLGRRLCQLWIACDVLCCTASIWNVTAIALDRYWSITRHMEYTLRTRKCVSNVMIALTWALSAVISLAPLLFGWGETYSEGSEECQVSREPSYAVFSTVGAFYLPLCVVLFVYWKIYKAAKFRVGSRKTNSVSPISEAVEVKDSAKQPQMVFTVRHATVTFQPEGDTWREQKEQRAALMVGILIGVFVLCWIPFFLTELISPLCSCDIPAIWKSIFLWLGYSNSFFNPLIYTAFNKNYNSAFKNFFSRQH
T1 sequence (P08588 whole entry): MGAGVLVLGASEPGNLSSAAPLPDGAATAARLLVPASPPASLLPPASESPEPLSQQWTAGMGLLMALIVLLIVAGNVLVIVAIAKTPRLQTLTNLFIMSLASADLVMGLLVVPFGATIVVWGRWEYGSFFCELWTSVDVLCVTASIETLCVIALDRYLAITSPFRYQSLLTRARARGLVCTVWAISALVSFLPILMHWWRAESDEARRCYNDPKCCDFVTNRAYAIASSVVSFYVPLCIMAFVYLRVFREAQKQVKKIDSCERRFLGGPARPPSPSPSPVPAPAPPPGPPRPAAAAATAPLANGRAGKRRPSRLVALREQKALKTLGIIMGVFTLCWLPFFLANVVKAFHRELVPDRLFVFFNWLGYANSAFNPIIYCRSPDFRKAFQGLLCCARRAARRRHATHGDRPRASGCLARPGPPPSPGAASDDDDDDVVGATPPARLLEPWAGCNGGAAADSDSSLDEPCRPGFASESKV

O=C(CCOCCOCCOCCOCCNC(=O)CCc1ccc2n1[B-](F)(F)[N+]1=C(c3ccc[nH]3)C=CC1=C2)NCCCN1CCN(C2=Nc3ccccc3Oc3ccc(Cl)cc32)CC1 [Loxapine-a-2-NB590]
NanoBRET Fold Response (ADRB1; ADRB1, tracer 0.1μM): 0.97
NanoBRET Fold Response (ADRB1; ADRB1, tracer 1μM): 0.97
NanoBRET Fold Response (AVPR1B; AVPR1B, tracer 0.1μM): 1.06
NanoBRET Fold Response (AVPR1B; AVPR1B, tracer 1μM): 0.96
NanoBRET Fold Response (CCR9; CCR9, tracer 0.1μM): 1.02
NanoBRET Fold Response (CCR9; CCR9, tracer 1μM): 0.91
NanoBRET Fold Response (HTR5A; HTR5A, tracer 0.1μM): 0.97
NanoBRET Fold Response (HTR5A; HTR5A, tracer 1μM): 1.32
NanoBRET Fold Response (GALR1; GALR1, tracer 0.1μM): 1.03
NanoBRET Fold Response (GALR1; GALR1, tracer 1μM): 1.21

CCCn1c(=O)c2[nH]c(-c3ccc(OCC(=O)NCCNC(=O)CCOCCNC(=O)c4ccc(CNC(=O)CCc5ccc6n5[B-](F)(F)[N+]5=C(c7ccc[nH]7)C=CC5=C6)cc4)cc3)nc2n(CCC)c1=O [XAC-3-NB590]
NanoBRET Fold Response (ADRB1; ADRB1, tracer 0.1μM): 1.07
NanoBRET Fold Response (ADRB1; ADRB1, tracer 1μM): 1.05
NanoBRET Fold Response (AVPR1B; AVPR1B, tracer 0.1μM): 0.90
NanoBRET Fold Response (AVPR1B; AVPR1B, tracer 1μM): 1.21
NanoBRET Fold Response (CCR9; CCR9, tracer 0.1μM): 0.95
NanoBRET Fold Response (CCR9; CCR9, tracer 1μM): 1.57
NanoBRET Fold Response (HTR5A; HTR5A, tracer 0.1μM): 1.12
NanoBRET Fold Response (HTR5A; HTR5A, tracer 1μM): 0.97
NanoBRET Fold Response (GALR1; GALR1, tracer 0.1μM): 1.02
NanoBRET Fold Response (GALR1; GALR1, tracer 1μM): 1.04

CN(C)CCC=C1c2ccccc2CCc2ccc(C(=O)NCCNC(=O)CCOCCOCCOCCOCCNC(=O)CCc3ccc4n3[B-](F)(F)[N+]3=C(c5ccc[nH]5)C=CC3=C4)cc21 [Amitriptyline-a-2-NB590]
NanoBRET Fold Response (ADRB1; tracer at 0.1μM): 1.05
NanoBRET Fold Response (ADRB1; tracer at 1μM): 1.18
NanoBRET Fold Response (AVPR1B; tracer at 0.1μM): 0.94
NanoBRET Fold Response (AVPR1B; tracer at 1μM): 1.03
NanoBRET Fold Response (CCR9; tracer at 0.1μM): 0.99
NanoBRET Fold Response (CCR9; tracer at 1μM): 1.05
NanoBRET Fold Response (HTR5A; tracer at 0.1μM): 1.08
NanoBRET Fold Response (GALR1; tracer at 0.1μM): 1.05
NanoBRET Fold Response (GALR1; tracer at 1μM): 0.97

COc1ccccc1N1CCN(CCCCN2C(=O)c3ccc(CNC(=O)CCOCCOCCOCCOCCNC(=O)CCc4ccc5n4[B-](F)(F)[N+]4=C(c6ccc[nH]6)C=CC4=C5)cc3C2=O)CC1 [NAN-190-2-NB590]
NanoBRET Fold Response (CCR9; CCR9, tracer 0.1μM): 0.98
NanoBRET Fold Response (CCR9; CCR9, tracer 1μM): 0.99
NanoBRET Fold Response (HTR5A; HTR5A, tracer 0.1μM): 0.96
NanoBRET Fold Response (HTR5A; HTR5A, tracer 1μM): 1.13
NanoBRET Fold Response (GALR1; GALR1, tracer 0.1μM): 1.02

O=C(CCc1ccc2n1[B-](F)(F)[N+]1=C(c3ccc[nH]3)C=CC1=C2)NCc1ccc(C(=O)NCCOCCOCCNCC(O)COc2cccc3ccccc23)cc1 (centres unmarked) [Propranolol-3-NB590]
NanoBRET Fold Response (AVPR1B; AVPR1B, 0.1μM): 0.90
NanoBRET Fold Response (AVPR1B; AVPR1B, 1μM): 1.04
NanoBRET Fold Response (CCR9; CCR9, 0.1μM): 1.08
NanoBRET Fold Response (CCR9; CCR9, 1μM): 1.00
NanoBRET Fold Response (HTR5A; HTR5A, 0.1μM): 1.10
NanoBRET Fold Response (HTR5A; HTR5A, 1μM): 1.03
NanoBRET Fold Response (GALR1; GALR1, 0.1μM): 1.02
NanoBRET Fold Response (GALR1; GALR1, 1μM): 0.96

COc1ccccc1N1CCN(CCCCN2C(=O)c3ccc(CNC(=O)CCOCCNC(=O)c4ccc(CNC(=O)CCc5ccc6n5[B-](F)(F)[N+]5=C(c7ccc[nH]7)C=CC5=C6)cc4)cc3C2=O)CC1 [NAN-190-3-NB590]
NanoBRET Fold Response (AVPR1B; AVPR1B, tracer 0.1μM): 1.04
NanoBRET Fold Response (AVPR1B; AVPR1B, tracer 1μM): 1.04
NanoBRET Fold Response (CCR9; CCR9, tracer 0.1μM): 1.14
NanoBRET Fold Response (CCR9; CCR9, tracer 1μM): 1.04
NanoBRET Fold Response (HTR5A; HTR5A, tracer 0.1μM): 0.99
NanoBRET Fold Response (HTR5A; HTR5A, tracer 1μM): 1.06
NanoBRET Fold Response (GALR1; GALR1, tracer 0.1μM): 1.09
NanoBRET Fold Response (GALR1; GALR1, tracer 1μM): 0.99

O=C(CCc1ccc2n1[B-](F)(F)[N+]1=C(c3ccc[nH]3)C=CC1=C2)NCc1ccc(C(=O)NCCOCCC(=O)N[C@@H]2CC[C@@]3(O)[C@H]4Cc5ccc(O)c6c5[C@@]3(CCN4CC3CC3)[C@H]2O6)cc1 [Naltrexone-3-NB590]
NanoBRET Fold Response (ADRB1; ADRB1, tracer 0.1μM): 1.34
NanoBRET Fold Response (ADRB1; ADRB1, tracer 1μM): 0.83
NanoBRET Fold Response (AVPR1B; AVPR1B, tracer 0.1μM): 1.19
NanoBRET Fold Response (AVPR1B; AVPR1B, tracer 1μM): 1.17
NanoBRET Fold Response (CCR9; CCR9, tracer 0.1μM): 0.55
NanoBRET Fold Response (CCR9; CCR9, tracer 1μM): 0.92
NanoBRET Fold Response (HTR5A; HTR5A, tracer 0.1μM): 0.69
NanoBRET Fold Response (HTR5A; HTR5A, tracer 1μM): 0.98
NanoBRET Fold Response (GALR1; GALR1, tracer 0.1μM): 0.99
NanoBRET Fold Response (GALR1; GALR1, tracer 1μM): 0.89

CN(CCC=C1c2ccccc2CCc2ccccc21)C(=O)CCOCCOCCOCCOCCNC(=O)CCc1ccc2n1[B-](F)(F)[N+]1=C(c3ccc[nH]3)C=CC1=C2 [Amitriptyline-e-2-NB590]
NanoBRET Fold Response (ADRB1; tracer at 1μM): 0.95
NanoBRET Fold Response (AVPR1B; tracer at 1μM): 1.01
NanoBRET Fold Response (CCR9; tracer at 1μM): 0.95
NanoBRET Fold Response (HTR5A; tracer at 1μM): 1.05

N#CN/C(=N\CCNC(=O)c1ccc(N)cc1)NCCCOc1cccc(CN2CCCCC2)c1 [Aminopotentidine (unmodified)]
NanoBRET Fold Response (ADRB1; ADRB1, other tracers/Aminopotentidine (unmodified), 0.1μM): 1.01
NanoBRET Fold Response (ADRB1; ADRB1, other tracers/Aminopotentidine (unmodified), 1μM): 1.07
NanoBRET Fold Response (HTR5A; HTR5A, other tracers/Aminopotentidine (unmodified), 0.1μM): 1.11
NanoBRET Fold Response (HTR5A; HTR5A, other tracers/Aminopotentidine (unmodified), 1μM): 1.09
